{
  "source": "patent EP1066315B1",
  "about": "(University of Dundee, priority 1998, dated 2008)",
  "key": {"[1]": {"biological_target": "T1, disrupted lysosomes isolated from the human B cell line EDR (TTCF processing activity) (Homo sapiens, UniProt Q99538)", "T1 construct": "disrupted lysosomes isolated from the human B cell line EDR; endogenous in cells; host or cells: human B cell line EDR, Percoll-gradient lysosomal fraction, disrupted", "T1 sequence (Q99538 26-323 limits assumed)": "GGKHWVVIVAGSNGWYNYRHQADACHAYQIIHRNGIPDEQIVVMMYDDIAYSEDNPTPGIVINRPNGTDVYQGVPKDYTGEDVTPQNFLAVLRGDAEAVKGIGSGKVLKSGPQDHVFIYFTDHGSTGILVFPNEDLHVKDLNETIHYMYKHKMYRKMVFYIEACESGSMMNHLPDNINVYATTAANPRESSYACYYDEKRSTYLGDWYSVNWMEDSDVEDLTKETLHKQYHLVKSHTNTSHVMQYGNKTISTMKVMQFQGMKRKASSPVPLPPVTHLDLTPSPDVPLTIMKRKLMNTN", "experiment": "Digestion of TTCF by disrupted B cell lysosomes, SDS-PAGE readout", "type": "biochemical", "conditions": "inhibitor at 0.1 mg/ml; pH 4.5; 4 hours at 37°C; Fig 1a", "procedure": "The invention will now be described by reference to the following Examples and Figures wherein • Figure 1: Processing of TTCF by a leupeptin-insensitive cysteine endopeptidase activity. (a) TTCF was digested in vitro in the presence of disrupted lysosomes (1-2 µg) in the presence or absence of iodoacetamide (1 mM), leupeptin, E64 or pepstatin (each at 0.1 mg/ml). Digestions were in 0.1 M NH4 acetate at pH 4.5 or Na2HPO4, pH 6.0 or 7.0. After 4 hours at 37°C, the reactions were separated by Tris-tricine SDS-PAGE and stained with Coomassie Blue. (b) Cleavage sites: TTCF digestion products were separated by SDS PAGE and electrophoretically transferred to nitrocellulose membrane. Individual fragments numbered 1-6 were subjected to 5 cycles of Edman degradation. N-terminal sequence obtained is shown in bold following upstream residues from TTCF (tetanus toxin numbering). The N-terminal sequence of His-tagged TTCF was obtained for fragments 1 and 3. (c) Residues Asn 1184 and Glu 1184 in TTCF were mutated to alanine (see Methods) and digestions performed as before. The mutation abolishes cleavage at the mutated site but not at the first site (doublet at 47 kD). In this experiment cleavage of the third site was minimal. • Figure 2: TTCF is processed by an asparaginyl endopeptidase. (a) Chromatography of the TTCF processing activity on Mono-S resin. Fractions eluted by NaCl gradient were incubated with the substrates Z-Ala-Ala-Asn-NHMec or Z-Phe-Arg-NHMec in the presence or absence of E64 (trans-epoxysuccinyl-L-leucylamido-(4-guanidino)butane). […] (b) Fractions as above were incubated with 10 µg TTCF in the presence or absence of E64 for 4 hours at 37°C prior to SDS-PAGE analysis. (c) Each fraction was analysed by SDS-PAGE and Western blotting. Electrophoretically transferred material was probed with an affinity purified antiserum raised against the peptide KGIGSGKVLKSGPQC from human legumain^1. • Figure 3: Peptide inhibitors of AEP block asparaginyl endopeptidase activity and TTCF processing in vitro and in vivo. (a) TTCF was digested with purified AEP (legumain from pig kidney) in the presence or absence of 0.2 mg/ml of the peptides indicated. […] (b) Purified AEP or a crude lysosomal protease mixture were incubated with Z-Ala-Ala-Asn-NHMec, Z-Phe-Arg-NHMec (cathepsins L&B) or Z-Val-Val-Ala NHMec (cathepsin S) in the presence of increasing concentrations of AENK or AEQK. Release of 7-amino-4-methyl coumarin was measured after 10, 20 or 30 minutes. […] At different times the cells were washed, fixed in 0.05 % glutaraldehyde and co-cultured with autologous TTCF specific T cell clones. […] Proteins obtained from commercial sources, as described in the literature or custom peptides were digested with purified pig kidney legumain at pH 5.5 in the presence of 1 mM DTT. […] When present peptide was maintained during antigen pulsing at 1 mg/ml (a) or 2 mg/ml (b). At different times the cells were washed, fixed in 0.05 % glutaraldehyde and antigen presentation measured using proliferation of different autologous TTCF-specific T cell clones. c, AEP pre-processing of TTCF speeds antigen presentation. […] Presentation was measured after 60 minutes of antigen pulsing using EBV B cells.\n[…]. […] Nor could we reproduce the lysosomal TTCF digestion pattern or indeed generate any of these fragments using purified cathepsins L, S, B, D or E , all of which have been implicated in the class II MHC antigen processing pathway (reviewed in refs 5 & 6).\nTTCF processing activity. Lysosomal fractions from the human B cell line EDR were prepared on 27 % Percoll density gradients as previously described^8 using ^125I-labelled transferrin (internalised for 30 minutes at 37°C) and β-hexosaminidase to identify endosomal/plasma membrane and lysosomal fractions respectively. The peak of lysosomes was collected by centrifugation at 40,000 g for 1 hour, removed from the underlying Percoll pellet, collected again at 50,000 g for 1 hour and stored frozen. […]"}, "cathepsin L and/or B": {"test_system": "cathepsin L and/or B", "experiment": "Cleavage of Z-Phe-Arg-NHMec by Mono-S fractions of B cell lysosome extract", "type": "biochemical, human", "conditions": "presence or absence of E64, Fig 2a", "procedure": "(§1) The invention will now be described by reference to the following Examples and Figures wherein • Figure 1: Processing of TTCF by a leupeptin-insensitive cysteine endopeptidase activity. (a) TTCF was digested in vitro in the presence of disrupted lysosomes (1-2 µg) in the presence or absence of iodoacetamide (1 mM), leupeptin, E64 or pepstatin (each at 0.1 mg/ml). Digestions were in 0.1 M NH4 acetate at pH 4.5 or Na2HPO4, pH 6.0 or 7.0. After 4 hours at 37°C, the reactions were separated by Tris-tricine SDS-PAGE and stained with Coomassie Blue. (b) Cleavage sites: TTCF digestion products were separated by SDS PAGE and electrophoretically transferred to nitrocellulose membrane. Individual fragments numbered 1-6 were subjected to 5 cycles of Edman degradation. N-terminal sequence obtained is shown in bold following upstream residues from TTCF (tetanus toxin numbering). […] (c) Each fraction was analysed by SDS-PAGE and Western blotting. […] Release of 7-amino-4-methyl coumarin was measured after 10, 20 or 30 minutes. […] At different times the cells were washed, fixed in 0.05 % glutaraldehyde and antigen presentation measured using proliferation of different autologous TTCF-specific T cell clones. c, AEP pre-processing of TTCF speeds antigen presentation. […] Presentation was measured after 60 minutes of antigen pulsing using EBV B cells. […]"}, "TTCF processing activity": {"biological_target": "T2, TTCF processing activity (Homo sapiens, UniProt Q99538)", "T2 construct": "We next partially purified the TTCF processing activity from a crude B cell lysosome fraction; endogenous in cells; host or cells: human B cell line EDR; membrane pellet solubilised in citrate/CHAPS, Mono-S cation-exchange fractions", "T2 sequence (Q99538 26-323 limits assumed)": "T1 sequence (Q99538 26-323 limits assumed)", "experiment": "TTCF processing by Mono-S fractions of B cell lysosome extract", "type": "biochemical", "conditions": "10 µg TTCF, 4 hours at 37°C, Fig 2b", "procedure": "as §1"}, "[2]": {"biological_target": "T3, asparaginyl endopeptidase activity (Homo sapiens, UniProt Q99538)", "T3 construct": "We next partially purified the TTCF processing activity from a crude B cell lysosome fraction; endogenous in cells; host or cells: human B cell line EDR; membrane pellet solubilised in citrate/CHAPS, Mono-S cation-exchange fractions", "T3 sequence (Q99538 26-323 limits assumed)": "T1 sequence (Q99538 26-323 limits assumed)", "experiment": "Cleavage of Z-Ala-Ala-Asn-NHMec by Mono-S fractions of B cell lysosome extract", "type": "biochemical", "conditions": "presence or absence of E64", "procedure": "as §1"}, "[3]": {"test_system": "purified AEP (legumain from pig kidney)", "experiment": "Digestion of TTCF with purified AEP in the presence of tetrapeptides", "type": "biochemical", "conditions": "0.2 mg/ml peptide; Fig 3a", "procedure": "The invention will now be described by reference to the following Examples and Figures wherein • Figure 1: Processing of TTCF by a leupeptin-insensitive cysteine endopeptidase activity. (a) TTCF was digested in vitro in the presence of disrupted lysosomes (1-2 µg) in the presence or absence of iodoacetamide (1 mM), leupeptin, E64 or pepstatin (each at 0.1 mg/ml). Digestions were in 0.1 M NH4 acetate at pH 4.5 or Na2HPO4, pH 6.0 or 7.0. After 4 hours at 37°C, the reactions were separated by Tris-tricine SDS-PAGE and stained with Coomassie Blue. (b) Cleavage sites: TTCF digestion products were separated by SDS PAGE and electrophoretically transferred to nitrocellulose membrane. Individual fragments numbered 1-6 were subjected to 5 cycles of Edman degradation. N-terminal sequence obtained is shown in bold following upstream residues from TTCF (tetanus toxin numbering). The N-terminal sequence of His-tagged TTCF was obtained for fragments 1 and 3. (c) Residues Asn 1184 and Glu 1184 in TTCF were mutated to alanine (see Methods) and digestions performed as before. The mutation abolishes cleavage at the mutated site but not at the first site (doublet at 47 kD). In this experiment cleavage of the third site was minimal. • Figure 2: TTCF is processed by an asparaginyl endopeptidase. (a) Chromatography of the TTCF processing activity on Mono-S resin. Fractions eluted by NaCl gradient were incubated with the substrates Z-Ala-Ala-Asn-NHMec or Z-Phe-Arg-NHMec in the presence or absence of E64 (trans-epoxysuccinyl-L-leucylamido-(4-guanidino)butane). […] (b) Fractions as above were incubated with 10 µg TTCF in the presence or absence of E64 for 4 hours at 37°C prior to SDS-PAGE analysis. (c) Each fraction was analysed by SDS-PAGE and Western blotting. Electrophoretically transferred material was probed with an affinity purified antiserum raised against the peptide KGIGSGKVLKSGPQC from human legumain^1. • Figure 3: Peptide inhibitors of AEP block asparaginyl endopeptidase activity and TTCF processing in vitro and in vivo. […] Release of 7-amino-4-methyl coumarin was measured after 10, 20 or 30 minutes. […] At different times the cells were washed, fixed in 0.05 % glutaraldehyde and antigen presentation measured using proliferation of different autologous TTCF-specific T cell clones. c, AEP pre-processing of TTCF speeds antigen presentation. […] Presentation was measured after 60 minutes of antigen pulsing using EBV B cells.\nWe decided to test the possibility that high concentrations of asparagine containing peptides might act as competitive inhibitors. […] To establish that inhibition of AEP was specific, we measured the hydrolysis of different synthetic peptide substrates in the presence and absence of these tetrapeptides."}},
  "note": "Entries after “also recorded” stand apart in the source; their conditions may differ. Residues, ends and D or L forms follow the SMILES beside them. *: point of attachment. Fmoc = O=C(OCC1c2ccccc2-c2ccccc21)*",
  "data": [
    {"smiles": "CC(C)C[C@H](NC(=O)[C@H]1O[C@@H]1C(=O)O)C(=O)NCCCCNC(=N)N", "note": "[E64, trans-epoxysuccinyl-L-leucylamido-(4-guanidino)butane]", "values": [
      {"measurement": "inhibition of lysosomal digestion of TTCF", "setting": "[1]", "result": "could not inhibit"},
      {"measurement": "inhibition of activity cleaving Z-Phe-Arg-NHMec", "setting": "cathepsin L and/or B", "result": "completely inhibited"},
      {"measurement": "effect on TTCF processing activity", "setting": "TTCF processing activity", "result": "unaffected"},
      {"measurement": "effect on cleavage of Z-Ala-Ala-Asn-NHMec", "setting": "[2]", "result": "no inhibitory effect; also recorded: unaffected"}
    ]},
    {"smiles": "NCCCC[C@H](NC(=O)OCC1c2ccccc2-c2ccccc21)C(=O)N[C@@H](CC(N)=O)C(=O)N[C@@H](CC(N)=O)C(=O)N[C@@H](CCC(=O)O)C(N)=O", "note": "[KNNE, Lys-Asn-Asn-Glu-NH] (Fmoc-KNNE-NH2)", "values": [
      {"measurement": "inhibition of processing of TTCF by AEP", "setting": "[3]", "result": "also inhibited but was less effective"}
    ]}
  ]
}
